Data: PubChem BioAssay AID328 (DTP/NCI, 2004)
Several values for one entry are separate records, joined by “and”; a condition that tells them apart may be missing. Equal values may be shown once. Inconclusive results and toxic doses are left out.

Test system: BDF1 mice, P388 leukemia ip, median survival T/C
Test: NCI In Vivo Anticancer Drug Screen. Data for tumor model P388 Leukemia (intraperitoneal) in B6D2F1 (BDF1) mice
Conditions: endpoint: median survival time, higher = longer survival
How it was run: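 Steps: implant the tumour, treat one group with compound and another with vehicle, record survival, then divide treated by control.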

[1] = dose: 50.0 mg/kg/injection, schedule: Q01DX009 (ip), vehicle: saline with Tween-80
[2] = dose: 100.0 mg/kg/injection, schedule: Q01DX009 (ip), vehicle: Klucel (hydroxypropylcellulose) (HPC)
[3] = dose: 200.0 mg/kg/injection, schedule: Q01DX009 (ip), vehicle: saline with Tween-80
[4] = dose: 200.0 mg/kg/injection, schedule: Q01DX009 (ip), vehicle: saline
[5] = dose: 400.0 mg/kg/injection, schedule: Q01DX009 (ip), vehicle: Klucel (hydroxypropylcellulose) (HPC)

CCOC(=O)c1cnn(-c2ccccc2)c1N
T/C (dose: 6.25 mg/kg/injection, schedule: Q04DX003 (ip), vehicle: saline): 110 % of control | T/C (dose: 12.5 mg/kg/injection, schedule: Q01DX009 (ip), vehicle: saline): 102 % of control | T/C (dose: 12.5 mg/kg/injection, schedule: Q04DX003 (ip), vehicle: saline): 107 % of control | T/C (dose: 25.0 mg/kg/injection, schedule: Q01DX009 (ip), vehicle: saline): 96 % of control | T/C (dose: 25.0 mg/kg/injection, schedule: Q04DX003 (ip), vehicle: saline): 100 % of control | T/C [1]: 243 % of control | T/C (dose: 50.0 mg/kg/injection, schedule: Q01DX009 (ip), vehicle: saline): 96 % of control and 104 % of control | T/C (dose: 50.0 mg/kg/injection, schedule: Q04DX003 (ip), vehicle: saline): 100 % of control | T/C [2]: 104 % of control | T/C (dose: 100.0 mg/kg/injection, schedule: Q01DX009 (ip), vehicle: saline with Tween-80): 241 % of control | T/C (dose: 100.0 mg/kg/injection, schedule: Q01DX009 (ip), vehicle: saline): 104 % of control and 105 % of control | T/C (dose: 100.0 mg/kg/injection, schedule: Q04DX003 (ip), vehicle: Klucel (hydroxypropylcellulose) (HPC)): 95 % of control | T/C (dose: 100.0 mg/kg/injection, schedule: Q04DX003 (ip), vehicle: saline): 95 % of control | T/C (dose: 200.0 mg/kg/injection, schedule: Q01DX009 (ip), vehicle: Klucel (hydroxypropylcellulose) (HPC)): 95 % of control | T/C [3]: 91 % of control | T/C [4]: 86 % of control | T/C (dose: 200.0 mg/kg/injection, schedule: Q04DX003 (ip), vehicle: Klucel (hydroxypropylcellulose) (HPC)): 100 % of control | T/C [5]: 86 % of control | T/C (dose: 400.0 mg/kg/injection, schedule: Q04DX003 (ip), vehicle: Klucel (hydroxypropylcellulose) (HPC)): 87 % of control

[O-][n+]1c(CN2CCCCC2)nc2cccc3c2c1-c1ccccc1-3
T/C (dose: 12.5 mg/kg/injection, schedule: Q03HX008 (ip), vehicle: saline): 92 % of control | T/C (dose: 12.5 mg/kg/injection, schedule: Q03HX016 (ip), vehicle: saline): 100 % of control | T/C (dose: 12.5 mg/kg/injection, schedule: Q03HX024 (ip), vehicle: saline): 96 % of control | T/C (dose: 25.0 mg/kg/injection, schedule: Q01DX009 (ip), vehicle: saline with Tween-80): 105 % of control | T/C (dose: 25.0 mg/kg/injection, schedule: Q03HX008 (ip), vehicle: saline): 95 % of control | T/C (dose: 25.0 mg/kg/injection, schedule: Q03HX016 (ip), vehicle: saline): 99 % of control | T/C (dose: 25.0 mg/kg/injection, schedule: Q03HX024 (ip), vehicle: saline): 93 % of control | T/C (dose: 50.0 mg/kg/injection, schedule: Q01DX009 (ip), vehicle: Klucel (hydroxypropylcellulose) (HPC)): 116 % of control | T/C [1]: 108 % of control and 116 % of control | T/C (dose: 50.0 mg/kg/injection, schedule: Q03HX008 (ip), vehicle: saline): 95 % of control | T/C (dose: 50.0 mg/kg/injection, schedule: Q03HX016 (ip), vehicle: saline): 94 % of control | T/C (dose: 50.0 mg/kg/injection, schedule: Q03HX024 (ip), vehicle: saline): 110 % of control | T/C (dose: 50.0 mg/kg/injection, schedule: Q08HX027 (ip), vehicle: saline): 113 % of control | T/C [2]: 100 % of control | T/C (dose: 100.0 mg/kg/injection, schedule: Q03HX008 (ip), vehicle: saline): 92 % of control | T/C (dose: 100.0 mg/kg/injection, schedule: Q03HX016 (ip), vehicle: saline): 90 % of control | T/C (dose: 100.0 mg/kg/injection, schedule: Q03HX024 (ip), vehicle: saline): 115 % of control | T/C (dose: 100.0 mg/kg/injection, schedule: Q08HX027 (ip), vehicle: saline): 119 % of control | T/C (dose: 150.0 mg/kg/injection, schedule: Q01DX009 (oral), vehicle: saline): 91 % of control | T/C [3]: 158 % of control | T/C [4]: 222 % of control | T/C (dose: 300.0 mg/kg/injection, schedule: Q01DX009 (oral), vehicle: saline): 95 % of control | T/C [5]: 151 % of control | T/C (dose: 400.0 mg/kg/injection, schedule: Q01DX009 (oral), vehicle: saline): 98 % of control | T/C (dose: 600.0 mg/kg/injection, schedule: Q01DX009 (oral), vehicle: saline): 103 % of control
